This note sets out measurements from patent publication US11702429B2, “mTORC modulators and uses thereof” (Aeovian Pharmaceuticals, Inc., priority 2019, dated 2023).

The target in assay [1] is T1, mTORC1 (Homo sapiens, UniProt P42345+P62942).
T1 construct: endogenous in cells; host or cells: PC3 cells (human prostate adenocarcinoma)
Kind of assay: Inhibition assay for mTORC1: phosphorylation of pS6K at Thr389, AlphaLISA in PC3 cells. It counts as cell-based. The note with it: for IC50: read-out: pIC50 mTORC1 (converted).

In assay [2] the target is T2, mTORC2 (Homo sapiens, UniProt P42345+P62942).
T2 construct: endogenous in cells; host or cells: PC3 cells (human prostate adenocarcinoma)
T2 sequence (P62942 2-108 limits assumed, other chains not shown): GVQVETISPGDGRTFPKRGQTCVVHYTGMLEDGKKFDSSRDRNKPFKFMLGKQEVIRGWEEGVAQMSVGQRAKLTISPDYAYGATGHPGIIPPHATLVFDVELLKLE
Kind of assay: Inhibition assay for mTORC2: phosphorylation of pAkt at Ser473, AlphaLISA in PC3 cells. Format: cell-based. The note with it: for IC50: read-out: pIC50 mTORC2 (converted).

For `COC1C[C@@H]2CC[C@@H](C)[C@@](O)(O2)C(=O)C(=O)N2CCCCC2C(=O)O[C@H]([C@H](C)C[C@@H]2CC[C@@H](OCCOCCOCCO)[C@H](OC)C2)CC(=O)[C@H](C)/C=C(\C)[C@@H](O)[C@@H](OC)C(=O)[C@H](C)C[C@H](C)/C=C/C=C/C=C/1C` (some centres unmarked) [Compound 317], the IC50 in assay [1] was under 0.000316 µM; in assay [2], under 1 µM.

For `COC1C[C@@H]2CC[C@@H](C)[C@@](O)(O2)C(=O)C(=O)N2CCCCC2C(=O)O[C@H]([C@H](C)C[C@@H]2CC[C@@H](OC(=O)N(C)CCN3CCCCC3)[C@H](OC)C2)CC(=O)[C@H](C)/C=C(\C)[C@@H](O)[C@@H](OC)C(=O)[C@H](C)C[C@H](C)/C=C/C=C/C=C/1C` (some centres unmarked) [Compound 318], the IC50 was under 0.000316 µM in assay [1] and under 1 µM in assay [2].

`COC1C[C@@H]2CC[C@@H](C)[C@@](O)(O2)C(=O)C(=O)N2CCCCC2C(=O)O[C@H]([C@H](C)C[C@@H]2CC[C@@H](OCCCOCCO)[C@H](OC)C2)CC(=O)[C@H](C)/C=C(\C)[C@@H](O)[C@@H](OC)C(=O)[C@H](C)C[C@H](C)/C=C/C=C/C=C/1C` (some centres unmarked) [Compound 319]: the results for the IC50 in assay [1] and in assay [2] were under 0.000316 µM and under 1 µM, respectively.

For the molecule `COC1C[C@@H]2CC[C@@H](C)[C@@](O)(O2)C(=O)C(=O)N2CCCCC2C(=O)O[C@H]([C@H](C)C[C@@H]2CC[C@@H](OCCN3CCN(C)CC3)[C@H](OC)C2)CC(=O)[C@H](C)/C=C(\C)[C@@H](O)[C@@H](OC)C(=O)[C@H](C)C[C@H](C)/C=C/C=C/C=C/1C` (some centres unmarked) [Compound 320], the IC50 is under 0.000316 µM in assay [1] and under 1 µM in assay [2].

As to `COC1C[C@@H]2CC[C@@H](C)[C@@](O)(O2)C(=O)C(=O)N2CCCCC2C(=O)O[C@H]([C@H](C)C[C@@H]2CC[C@@H](OC(=O)N(C)CCCN(C)C)[C@H](OC)C2)CC(=O)[C@H](C)/C=C(\C)[C@@H](O)[C@@H](OC)C(=O)[C@H](C)C[C@H](C)/C=C/C=C/C=C/1C` (some centres unmarked) [Compound 321], the IC50 in assay [1] is under 0.000316 µM; in assay [2], under 1 µM.

In the case of `COC1C[C@@H]2CC[C@@H](C)[C@@](O)(O2)C(=O)C(=O)N2CCCCC2C(=O)O[C@H]([C@H](C)C[C@@H]2CC[C@@H](OCCCN3CCOCC3)[C@H](OC)C2)CC(=O)[C@H](C)/C=C(\C)[C@@H](O)[C@@H](OC)C(=O)[C@H](C)C[C@H](C)/C=C/C=C/C=C/1C` (some centres unmarked) [Compound 322], the IC50 was under 0.000316 µM in assay [1] and under 1 µM in assay [2].

As for `COC1C[C@@H]2CC[C@@H](C)[C@@](O)(O2)C(=O)C(=O)N2CCCCC2C(=O)O[C@H]([C@H](C)C[C@@H]2CC[C@@H](OC(=O)NCCc3ccccc3)[C@H](OC)C2)CC(=O)[C@H](C)/C=C(\C)[C@@H](O)[C@@H](OC)C(=O)[C@H](C)C[C@H](C)/C=C/C=C/C=C/1C` (some centres unmarked) [Compound 324], the IC50 in assay [1] is under 0.000316 µM; in assay [2], under 1 µM.

On to `COC1C[C@@H]2CC[C@@H](C)[C@@](O)(O2)C(=O)C(=O)N2CCCCC2C(=O)O[C@H]([C@H](C)C[C@@H]2CC[C@@H](OCCN3CCOCC3)[C@H](OC)C2)CC(=O)[C@H](C)/C=C(\C)[C@@H](O)[C@@H](OC)C(=O)[C@H](C)C[C@H](C)/C=C/C=C/C=C/1C` (some centres unmarked) [Compound 325], for which the IC50 in assay [1] was under 0.000316 µM; in assay [2] it was under 1 µM.

As to `COC1C[C@@H]2CC[C@@H](C)[C@@](O)(O2)C(=O)C(=O)N2CCCCC2C(=O)O[C@H]([C@H](C)C[C@@H]2CC[C@@H](OCCCN3CCN(C)CC3)[C@H](OC)C2)CC(=O)[C@H](C)/C=C(\C)[C@@H](O)[C@@H](OC)C(=O)[C@H](C)C[C@H](C)/C=C/C=C/C=C/1C` (some centres unmarked) [Compound 332], the IC50 in assay [1] is under 0.000316 µM; in assay [2], under 1 µM.

For `COC1C[C@@H]2CC[C@@H](C)[C@@](O)(O2)C(=O)C(=O)N2CCCCC2C(=O)O[C@H]([C@H](C)C[C@@H]2CC[C@@H](OC(=O)NCc3ccccn3)[C@H](OC)C2)CC(=O)[C@H](C)/C=C(\C)[C@@H](O)[C@@H](OC)C(=O)[C@H](C)C[C@H](C)/C=C/C=C/C=C/1C` (some centres unmarked) [Compound 333], the IC50 in assay [1] was under 0.000316 µM; in assay [2], under 1 µM.

As for `COC1C[C@@H]2CC[C@@H](C)[C@@](O)(O2)C(=O)C(=O)N2CCCCC2C(=O)O[C@H]([C@H](C)C[C@@H]2CC[C@@H](OC(=O)NCCc3ccncc3)[C@H](OC)C2)CC(=O)[C@H](C)/C=C(\C)[C@@H](O)[C@@H](OC)C(=O)[C@H](C)C[C@H](C)/C=C/C=C/C=C/1C` (some centres unmarked) [Compound 334], the results for the IC50 in assay [1] and in assay [2] were under 0.000316 µM and under 1 µM, respectively.

Take `COC1C[C@@H]2CC[C@@H](C)[C@@](O)(O2)C(=O)C(=O)N2CCCCC2C(=O)O[C@H]([C@H](C)C[C@@H]2CC[C@@H](OC(=O)NCCN3CCOCC3)[C@H](OC)C2)CC(=O)[C@H](C)/C=C(\C)[C@@H](O)[C@@H](OC)C(=O)[C@H](C)C[C@H](C)/C=C/C=C/C=C/1C` (some centres unmarked) [Compound 336]: the IC50 was under 0.000316 µM in assay [1] and under 1 µM in assay [2].

Consider `COC1C[C@@H]2CC[C@@H](C)[C@@](O)(O2)C(=O)C(=O)N2CCCCC2C(=O)O[C@H]([C@H](C)C[C@@H]2CC[C@@H](OC(=O)NCCC3CC3)[C@H](OC)C2)CC(=O)[C@H](C)/C=C(\C)[C@@H](O)[C@@H](OC)C(=O)[C@H](C)C[C@H](C)/C=C/C=C/C=C/1C` (some centres unmarked) [Compound 337], for which the IC50 was under 0.000316 µM in assay [1] and under 1 µM in assay [2].

Consider `COC1C[C@@H]2CC[C@@H](C)[C@@](O)(O2)C(=O)C(=O)N2CCCCC2C(=O)O[C@H]([C@H](C)C[C@@H]2CC[C@@H](OC(=O)N(C)CCCO)[C@H](OC)C2)CC(=O)[C@H](C)/C=C(\C)[C@@H](O)[C@@H](OC)C(=O)[C@H](C)C[C@H](C)/C=C/C=C/C=C/1C` (some centres unmarked) [Compound 338], for which the IC50 in assay [1] was under 0.000316 µM; in assay [2] it was under 1 µM.

For the molecule `COC1CC2CCC(C)C(O)(O2)C(=O)C(=O)N2CCCCC2C(=O)OC(C(C)CC2CCC(OCCCN3CCCC(O)C3)C(OC)C2)CC(=O)C(C)C=C(C)C(O)C(OC)C(=O)C(C)CC(C)C=CC=CC=C1C` (centres unmarked) [Compound 340], the IC50 is under 0.000316 µM in assay [1] and under 1 µM in assay [2].

As to `COC1C[C@@H]2CC[C@@H](C)[C@@](O)(O2)C(=O)C(=O)N2CCCCC2C(=O)O[C@H]([C@H](C)C[C@@H]2CC[C@@H](OCCCN3CCCCC3)[C@H](OC)C2)CC(=O)[C@H](C)/C=C(\C)[C@@H](O)[C@@H](OC)C(=O)[C@H](C)C[C@H](C)/C=C/C=C/C=C/1C` (some centres unmarked) [Compound 341], the IC50 in assay [1] is under 0.000316 µM; in assay [2], under 1 µM.

In the case of `COC1C[C@@H]2CC[C@@H](C)[C@@](O)(O2)C(=O)C(=O)N2CCCCC2C(=O)O[C@H]([C@H](C)C[C@@H]2CC[C@@H](OP(C)(C)=O)[C@H](OC)C2)CC(=O)[C@H](C)/C=C(\C)[C@@H](O)[C@@H](OC)C(=O)[C@H](C)C[C@H](C)/C=C/C=C/C=C/1C` (some centres unmarked) [Compound 342], the IC50 in assay [1] was under 0.000316 µM; in assay [2] it was under 1 µM.

As for `COC1C[C@@H]2CC[C@@H](C)[C@@](O)(O2)C(=O)C(=O)N2CCCCC2C(=O)O[C@H]([C@H](C)C[C@@H]2CC[C@@H](OC(=O)CN(C)C)[C@H](OC)C2)CC(=O)[C@H](C)/C=C(\C)[C@@H](O)[C@@H](OC)C(=O)[C@H](C)C[C@H](C)/C=C/C=C/C=C/1C` (some centres unmarked) [Compound 343], the values for the IC50 in assay [1] and in assay [2] were under 0.000316 µM and under 1 µM, respectively.

With `COC1C[C@@H]2CC[C@@H](C)[C@@](O)(O2)C(=O)C(=O)N2CCCCC2C(=O)O[C@H]([C@H](C)C[C@@H]2CC[C@@H](OC(=O)NCCCN3CCOCC3)[C@H](OC)C2)CC(=O)[C@H](C)/C=C(\C)[C@@H](O)[C@@H](OC)C(=O)[C@H](C)C[C@H](C)/C=C/C=C/C=C/1C` (some centres unmarked) [Compound 344], the IC50 was under 0.000316 µM in assay [1] and under 1 µM in assay [2].

As to `COCCOCCNC(=O)O[C@@H]1CC[C@@H](C[C@@H](C)[C@@H]2CC(=O)[C@H](C)/C=C(\C)[C@@H](O)[C@@H](OC)C(=O)[C@H](C)C[C@H](C)/C=C/C=C/C=C(\C)C(OC)C[C@@H]3CC[C@@H](C)[C@@](O)(O3)C(=O)C(=O)N3CCCCC3C(=O)O2)C[C@H]1OC` (some centres unmarked) [Compound 346], the results for the IC50 in assay [1] and in assay [2] were under 0.000316 µM and under 1 µM, respectively.

Consider `COC1C[C@@H]2CC[C@@H](C)[C@@](O)(O2)C(=O)C(=O)N2CCCCC2C(=O)O[C@H]([C@H](C)C[C@@H]2CC[C@@H](OC(=O)NCCOCCOCCOCCOCCO)[C@H](OC)C2)CC(=O)[C@H](C)/C=C(\C)[C@@H](O)[C@@H](OC)C(=O)[C@H](C)C[C@H](C)/C=C/C=C/C=C/1C` (some centres unmarked) [Compound 347], for which the results for the IC50 in assay [1] and in assay [2] were under 0.000316 µM and under 1 µM, respectively.

With `COC1CC2CCC(C)C(O)(O2)C(=O)C(=O)N2CCCCC2C(=O)OC(C(C)CC2CCC(OCCc3ccccc3)C(OC)C2)CC(=O)C(C)C=C(C)C(O)C(OC)C(=O)C(C)CC(C)C=CC=CC=C1C` (centres unmarked) [Compound 348], the IC50 in assay [1] was under 0.000316 µM; in assay [2], under 1 µM.

Consider `COC1C[C@@H]2CC[C@@H](C)[C@@](O)(O2)C(=O)C(=O)N2CCCCC2C(=O)O[C@H]([C@H](C)C[C@@H]2CC[C@@H](OCCOCCOCCOCCOCCO)[C@H](OC)C2)CC(=O)[C@H](C)/C=C(\C)[C@@H](O)[C@@H](OC)C(=O)[C@H](C)C[C@H](C)/C=C/C=C/C=C/1C` (some centres unmarked) [Compound 350], for which the IC50 was under 0.000316 µM in assay [1] and under 1 µM in assay [2].

Take `COC1C[C@@H]2CC[C@@H](C)[C@@](O)(O2)C(=O)C(=O)N2CCCCC2C(=O)O[C@H]([C@H](C)C[C@@H]2CC[C@@H](OCCCOCCO)[C@H](OC)C2)CC(=O)[C@H](C)/C=C(\C)[C@@H](O)[C@@H](OC)C(=O)[C@H](C)C[C@H](C)/C=C/C=C/C=C/1C` (some centres unmarked) [Compound 352]: the “pIC50 mTORC1” value in assay [1] (Rapamycin analogs substituted at C40, pS6K Thr389, PC3 cells, 24 hours treatment) is “A (pIC50 for mTORC1 of >9.5 as A)”. For the same molecule, the “pIC50 mTORC2” value in assay [2] (Rapamycin analogs substituted at C40, pAkt Ser473, PC3 cells, 24 hours treatment) is listed as “C (greater than 6 as C)”.

Consider `COC1C[C@@H]2CC[C@@H](C)[C@@](O)(O2)C(=O)C(=O)N2CCCCC2C(=O)O[C@H]([C@H](C)C[C@@H]2CC[C@@H](OCCN3CCC(O)CC3)[C@H](OC)C2)CC(=O)[C@H](C)/C=C(\C)[C@@H](O)[C@@H](OC)C(=O)[C@H](C)C[C@H](C)/C=C/C=C/C=C/1C` (some centres unmarked) [Compound 353], for which the results for the IC50 in assay [1] and in assay [2] were under 0.000316 µM and under 1 µM, respectively.
